Laboratory results: patent US20200040326A1, “METHOD FOR PROVIDING A DNA-ENCODED LIBRARY, DNA-ENCODED LIBRARY AND METHOD OF DECODING A DNA-ENCODED LIBRARY” (TU Dresden, priority 2018, published 2020)

Target: enzyme carbonic anhydrase II (Homo sapiens, UniProt P00918)
Settings: substance as DNA conjugate within the DEL; primer pairs 1a/1b (whole library), 2a/2b (CBS), 3a/3b (Theo); small ΔCq reflects large enrichment

Structure (SMILES): Cn1cnc2c1c(=O)[nH]c(=O)n2C [Theo, theobromine]
- enrichment after selection (from ΔCq, difference in qPCR cycle before and after selection): not enriched
